59 compounds from EP4782448A1, “SUBSTITUTED PYRIDOTRIAZOLE COMPOUND, AND PREPARATION METHOD THEREFOR AND USE THEREOF” (Origiant Pharmaceutical Co., Ltd., priority 2023, dated 2025) can be followed below.

Where only a bound is given, the exact number is not on record here.

The assay deals with HT-29 cells. Put plainly: In vitro assay for protection of HT-29 cells from necroptosis (TNFα/Smac mimetic/Z-VAD-FMK induction, CCK8 readout). Particulars: TNFα/Smac mimetic/Z-VAD-FMK for 24 h; inhibition of necroptosis; read-out: HT-29 (EC50). In kind it is cell-based.
As for `Cn1cc(C(=O)N2CCC[C@H]2c2ccc(F)cc2)c2cc(-c3ccn4nc(NC(=O)C5CCOC5)nc4c3)ccc21` (some centres unmarked) [Compound 186], the EC50 (commonly the concentration that produces a half-maximal response) is < 1 nM.
For `C[C@H](NC(=O)c1cn(C)c2ccc(-c3ccn4nc(NC(=O)Cn5ccnc5)nc4c3)cc12)c1ccc(F)cc1` [Compound 48] the value was 10 to 100 nM; for `C[C@H](NC(=O)c1cn(C)c2ccc(-c3ccn4nc(NC(=O)[C@H]5CCCO5)nc4c3)cc12)c1cccc(F)c1` [Compound 119], < 1 nM; for `C[C@H](NC(=O)c1cn(C)c2ccc(-c3ccn4nc(NC(=O)CN5CC[C@H](CO)C5)nc4c3)cc12)c1ccc(F)cc1` [Compound 61], 1 to 10 nM.
As for `C[C@H](NC(=O)c1cn(C)c2ccc(-c3ccn4nc(NC(=O)CN5CCOCC5)nc4c3)cc12)c1ccco1` [Compound 88], the EC50 was in the range of 1 to 10 nM.
To `CC(C(=O)Nc1nn(C)c2ccc(-c3ccn4nc(NC(=O)CN(C)C)nc4c3)cc12)c1ccc(F)cc1` (centres unmarked) [Compound 180] belongs 1000 to 10000 nM; to `CC(C(=O)Nc1cn(C)c2ccc(-c3ccn4nc(NC(=O)[C@H]5CCCO5)nc4c3)cc12)c1ccc(F)cc1` (some centres unmarked) [Compound 178], 100 to 1000 nM.
For `C[C@H](NC(=O)c1cn(C)c2ccc(-c3ccn4nc(NC(=O)N5CCOCC5)nc4c3)cc12)c1ccc(F)cc1` [Compound 116] the value was < 1 nM; for `Cn1cc(C(=O)Nc2nc3cc(-c4ccc5c(c4)c(C(=O)N[C@@H](CF)c4ccc(F)cc4)nn5C)ccn3n2)cn1` [Compound 187], < 1 nM.
For `C[C@H](NC(=O)c1nn(C)c2ccc(-c3ccn4nc(NC(=O)[C@H]5CCCO5)nc4c3)cc12)c1ccc(F)cc1` [Compound 193] the value was < 1 nM.
Take `Cn1cc(C(=O)N[C@@H](CF)c2ccc(F)cc2)c2cc(-c3ccn4nc(NC(=O)C#N)nc4c3)ccc21` [Compound 102]: the EC50 was < 1 nM.
To `Cn1cc(C(=O)N2CC(F)(F)CC2c2ccc(F)cc2)c2cc(-c3ccn4nc(NC(=O)N5CCOCC5)nc4c3)ccc21` (centres unmarked) [Compound 160] belongs < 1 nM; to `CN1CC[C@@H](C(=O)Nc2nc3cc(-c4ccc5c(c4)c(C(=O)N[C@@H](CF)c4ccc(F)cc4)cn5C)ccn3n2)C1` [Compound 100], < 1 nM.
For `CC(c1ccc(F)cc1)n1cnnc1-c1cn(C)c2ccc(-c3ccn4nc(NC(=O)C5CCOC5)nc4c3)cc12` (centres unmarked) [Compound 217] the value was 10 to 100 nM; for `Cn1cc(C(=O)N[C@H]2CCCc3ccc(F)cc32)c2cc(-c3ccn4nc(NC(=O)[C@H]5CCCO5)nc4c3)ccc21` [Compound 146], 10 to 100 nM.
To `C[C@H](NC(=O)c1cn(C)c2ccc(-c3ccn4nc(NC(=O)CN5CC[C@H](O)C5)nc4c3)cc12)c1ccc(F)cc1` [Compound 41] belongs < 1 nM; to `C[C@H](NC(=O)c1cn(C)c2ccc(-c3ccn4nc(NC(=O)CNC5CCOC5)nc4c3)cc12)c1ccc(F)cc1` (some centres unmarked) [Compound 77], < 1 nM.
`Cn1cc(C(=O)N2CCOC[C@@H]2c2ccc(F)cc2)c2cc(-c3ccn4nc(NC(=O)C5CC5)nc4c3)ccc21` [Compound 151]: the concentration giving a half-maximal response (EC50) was < 1 nM.
For `C[C@H](NC(=O)c1cn(C)c2ccc(-c3ccn4nc(NC(=O)c5cnn(C)c5)nc4c3)cc12)c1cccc(F)c1` [Compound 120] the value was < 1 nM; for `C[C@H](NC(=O)c1cn(C)c2ccc(-c3ccn4nc(NC5CCOC5)nc4c3)cc12)c1ccc(F)cc1` (some centres unmarked) [Compound 107], < 1 nM.
For `Cn1cc(C(=O)N[C@@H](CF)c2ccc(F)cc2)c2cc(-c3ccn4nc(NC(=O)C5CC5F)nc4c3)ccc21` (some centres unmarked) [Compound 113] the value was 1 to 10 nM; for `C[C@H](NC(=O)c1cn(C)c2ccc(-c3ccn4nc(NC(=O)CN5CCOC[C@H]5C)nc4c3)cc12)c1ccc(F)cc1` [Compound 72], < 1 nM.
To `Cn1cc(C(=O)NC2(c3ccc(F)cc3)COC2)c2cc(-c3ccn4nc(NC(=O)C5CC5)nc4c3)ccc21` [Compound 148] belongs 10 to 100 nM; to `C[C@H](NC(=O)c1nn(C)c2ccc(-c3ccn4nc(NC(=O)N5CCOCC5)nc4c3)cc12)c1ccc(F)cc1` [Compound 195], < 1 nM; to `Cn1cc(C(=O)N2CCC[C@H]2c2ccc(F)cc2)c2cc(-c3ccn4nc(NC(=O)N5CCOCC5)nc4c3)ccc21` [Compound 153], < 1 nM.
For `C[C@H](NC(=O)c1cn(C)c2ccc(-c3ccn4nc(NC(=O)CN5CCC(C#N)CC5)nc4c3)cc12)c1ccc(F)cc1` [Compound 23], the 50% effective concentration (EC50) is < 1 nM.
For `CC(C)Nc1nc2cc(-c3ccc4c(c3)c(C(=O)N[C@@H](CF)c3ccc(F)cc3)cn4C)ccn2n1` [Compound 99] the value was < 1 nM.
For `CCNCC(=O)Nc1nc2cc(-c3ccc4c(c3)c(C(=O)N[C@@H](C)c3ccc(F)cc3)cn4C)ccn2n1` [Compound 76] the value was < 1 nM; for `Cn1cc(C(=O)N[C@@H](CF)c2ccc(F)cc2)c2cc(-c3ccn4nc(NC(=O)[C@H]5CCCO5)nc4c3)ccc21` [Compound 104], 1000 to 10000 nM.
For `C[C@H](NC(=O)c1cn(C)c2ccc(-c3ccn4nc(NC(=O)[C@H]5CCCO5)nc4c3)cc12)c1ccc(F)cc1` [Compound 117] the value was < 1 nM; for `Cn1nc(C(=O)N[C@@H](CF)c2ccc(F)cc2)c2cc(-c3ccn4nc(NC(=O)C5CCOC5)nc4c3)ccc21` (some centres unmarked) [Compound 188], < 1 nM; for `C[C@H](NC(=O)c1cn(C)c2ccc(-c3ccn4nc(NC(=O)CN5CCC(F)(F)CC5)nc4c3)cc12)c1ccc(Cl)cc1` [Compound 86], < 1 nM.
`Cn1cc(C(=O)N[C@@H](CF)c2ccc(F)cc2)c2cc(-c3ccn4nc(NC(=O)C5CC5)nc4c3)ccc21` [Compound 114]: the EC50 is < 1 nM.
As to `C[C@H](NC(=O)c1cn(C)c2ccc(-c3ccn4nc(NC(=O)c5ccnc(F)c5)nc4c3)cc12)c1ccc(F)cc1` [Compound 115], the EC50 was < 1 nM.
For `Cn1cc(C(=O)Nc2nc3cc(-c4ccc5c(c4)c(C4=NC(c6ccc(F)cc6)CO4)cn5C)ccn3n2)cn1` (centres unmarked) [Compound 213] the value was 10 to 100 nM.
For `Cn1nc(C(=O)N[C@@H](CF)c2ccc(F)cc2)c2cc(-c3ccn4nc(NC(=O)C5CC5)nc4c3)ccc21` [Compound 190], the EC50 was < 1 nM.
For `C[C@H](NC(=O)c1cn(C)c2ccc(-c3ccn4nc(NC(=O)CN5CCC(O)(O)CC5)nc4c3)cc12)c1ccc(F)cc1` [Compound 5] the value was < 1 nM; for `CC[C@H](NC(=O)c1cn(C)c2ccc(-c3ccn4nc(NC(=O)CN5CCOCC5)nc4c3)cc12)c1ccc(F)cc1` [Compound 197], < 1 nM; for `Cn1cc(C(=O)N[C@@H](CF)c2ccc(F)cc2)c2cc(-c3ccn4nc(NC(=O)N5CCOCC5)nc4c3)ccc21` [Compound 103], < 1 nM.
For `C[C@H](NC(=O)c1cn(C)c2ccc(-c3ccn4nc(NC(=O)CN5CCC[C@H]5C(=O)O)nc4c3)cc12)c1ccc(F)cc1` [Compound 37] the value was 1 to 10 nM; for `CC(c1ccc(F)cc1)n1cnc(-c2cn(C)c3ccc(-c4ccn5nc(NC(=O)C6CC6F)nc5c4)cc23)n1` (centres unmarked) [Compound 209], 100 to 1000 nM; for `Cn1cc(C2=NC(c3ccc(F)cc3)CO2)c2cc(-c3ccn4nc(NC(=O)C5CC5F)nc4c3)ccc21` (centres unmarked) [Compound 211], 10 to 100 nM.
For `COCCn1cc(C(=O)N[C@@H](CF)c2ccc(F)cc2)c2cc(-c3ccn4nc(NC(=O)CC#N)nc4c3)ccc21` [Compound 215] the value was 10 to 100 nM.
Take `Cn1cc(C(=O)Nc2nc3cc(-c4ccc5c(c4)c(C(=O)N[C@H]4CCCc6ccc(F)cc64)cn5C)ccn3n2)cn1` [Compound 143]: the EC50 was in the range of 1 to 10 nM.
For `CC(C(=O)Nc1nn(C)c2ccc(-c3ccn4nc(NC(=O)c5cnn(C)c5)nc4c3)cc12)c1ccc(F)cc1` (centres unmarked) [Compound 181] the value was 1000 to 10000 nM; for `Cn1cc(C(=O)N2N=CCC2c2ccc(F)cc2)c2cc(-c3ccn4nc(NC(=O)C5CC5)nc4c3)ccc21` (centres unmarked) [Compound 170], < 1 nM; for `C[C@H](NC(=O)c1cn(C)c2ccc(-c3ccn4nc(NC(=O)CN5CC(F)(F)C5)nc4c3)cc12)c1ccc(Cl)cc1` [Compound 80], < 1 nM.
For `Cn1cc(C(=O)N2N=CCC2c2ccc(F)cc2)c2cc(-c3ccn4nc(NC(=O)N5CCOCC5)nc4c3)ccc21` (centres unmarked) [Compound 172] the value was 1 to 10 nM.
To `CCN(CC)CC(=O)Nc1nc2cc(-c3ccc4c(c3)c(C(=O)N[C@@H](C)c3ccc(F)cc3)cn4C)ccn2n1` [Compound 36] belongs < 1 nM.
Turning to `C[C@H](NC(=O)c1cn(C)c2ccc(-c3ccn4nc(NC(=O)CN5CCOCC5)nc4c3)cc12)c1ccc(Cl)cc1` [Compound 83], the EC50 is < 1 nM.
For `COC(C)C(=O)Nc1nc2cc(-c3ccc4c(c3)c(C(=O)N[C@@H](CF)c3ccc(F)cc3)cn4C)ccn2n1` (some centres unmarked) [Compound 112] the value was < 1 nM; for `Cn1cc(C(=O)N2CC(F)(F)CC2c2ccc(F)cc2)c2cc(-c3ccn4nc(NC(=O)C5CC5)nc4c3)ccc21` (centres unmarked) [Compound 158], 1000 to 10000 nM; for `Cn1cc(C(=O)N[C@H]2CCCc3cc(F)ccc32)c2cc(-c3ccn4nc(NC(=O)[C@@H]5CCCO5)nc4c3)ccc21` [Compound 139], 1 to 10 nM.
For `CC(C(=O)Nc1nc2cc(-c3ccc4c(c3)c(C(=O)N[C@@H](C)c3ccc(F)cc3)cn4C)ccn2n1)N1CC[C@H](O)C1` (some centres unmarked) [Compound 1] the value was 10 to 100 nM; for `C[C@H](NC(=O)c1cn(C)c2ccc(-c3ccn4nc(NC(=O)CC5CCCCC5)nc4c3)cc12)c1ccc(F)cc1` [Compound 13], < 1 nM.
To `Cn1cc(C(=O)N2N=CCC2c2ccc(F)cc2)c2cc(-c3ccn4nc(NC(=O)C5CCOC5)nc4c3)ccc21` (centres unmarked) [Compound 169] belongs < 1 nM; to `Cn1cc(C(=O)Nc2nc3cc(-c4ccc5c(c4)c(C(=O)N4CCOC[C@@H]4c4ccc(F)cc4)cn5C)ccn3n2)cn1` [Compound 149], < 1 nM.
As for `Cn1cc(C(=O)N[C@@H](CF)c2ccc(F)cc2)c2cc(-c3ccn4nc(NC(=O)C5CCOC5)nc4c3)ccc21` (some centres unmarked) [Compound 109], the half-maximal effective concentration (EC50) was in the range of 1 to 10 nM.
For `Cn1cc(C(=O)N[C@@H](CF)c2ccc(F)cc2)c2cc(-c3ccn4nc(NC(=O)CCl)nc4c3)ccc21` [Compound 94] the value was < 1 nM.
